Source: patent publication US6686390B2, “Compounds having antiinflamatory activity: process for their preparation and pharmaceutical compositions containing them” (Dr. Reddy's Laboratories Limited, priority 2000, dated 2004)

Legend:
COX-2 [1] = target: T1, COX-2 (Homo sapiens, UniProt P35354); test: Spectrophotometric assay of cox-2 (TMPD oxidation); format: biochemical; set-up: made in house; host or cells: sf-9 insect cells, baculovirus; conditions: microsomes from sf-9 cells with human cox-2, read-out: Percent inhibition COX-2; for inhibition at 100 µM: Conc. 100 μM
T1 sequence (P35354 18-604): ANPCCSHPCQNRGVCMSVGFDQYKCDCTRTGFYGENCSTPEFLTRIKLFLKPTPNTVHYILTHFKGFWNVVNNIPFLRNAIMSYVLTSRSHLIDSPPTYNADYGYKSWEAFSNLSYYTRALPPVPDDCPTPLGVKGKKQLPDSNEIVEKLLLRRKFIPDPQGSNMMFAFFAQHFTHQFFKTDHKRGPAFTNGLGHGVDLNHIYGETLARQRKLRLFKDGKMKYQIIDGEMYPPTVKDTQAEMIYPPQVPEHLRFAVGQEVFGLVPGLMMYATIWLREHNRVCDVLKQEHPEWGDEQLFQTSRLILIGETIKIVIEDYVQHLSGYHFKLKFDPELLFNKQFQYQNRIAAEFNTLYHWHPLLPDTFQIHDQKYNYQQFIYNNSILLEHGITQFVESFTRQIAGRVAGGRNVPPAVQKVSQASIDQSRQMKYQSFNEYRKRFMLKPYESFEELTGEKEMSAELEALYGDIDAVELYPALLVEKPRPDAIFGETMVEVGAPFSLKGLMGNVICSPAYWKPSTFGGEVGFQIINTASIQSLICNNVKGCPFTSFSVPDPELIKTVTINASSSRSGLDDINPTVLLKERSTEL
Method: (§1) 1. Spectrophotometric assay of cox-1 and cox-2:
(§2) Microsomal fraction of ram seminal vesicles used as a source of cox-1 enzyme (Hemler et al., 1976) and microsomes from sf-9 cells infected with baculo virus containing human cox-2 c-DNA used as a source of cox-2 enzyme (Wanda et al., 1994). Enzyme activity was measured using a chromogenic assay based on oxidation of N,N,N′,N′-tetramethyl-p-phenylenediamine (TMPD) during the reduction of PGG2 to PGH2 as per described by Copeland et al., 1994 with following modifications. The assay mixture (1000 μl) contains […] pH 8.0, 3 μM EDTA, 15 μM hematin, 150 units enzyme and 8% DMSO. The mixture was pre-incubated at 25° C. for 15 minutes before initiation of enzyme reaction in presence of compound/vehicle. The reaction was initiated by the addition of 100 μM arachidonic acid and 120 μM TMPD. The enzyme activity is measured by estimation of the initial velocity of TMPD oxidation over the first 25 seconds of the reaction followed by increase in absorbency at […]. The IC50 values were calculated using non-linear regression analysis of percent inhibitions.

COX-2 [2] = target: T1, COX-2; test: Human whole blood assay, COX-2 inhibition; format: cell-based; set-up: endogenous in cells; host or cells: human whole blood; conditions: read-out: IC50 COX-II
Method: (§3) 2) Human Whole Blood Assay:
An aliquot of fresh blood was mixed either with DMSO or test compounds and was allowed to clot for 1 hour at 37° C. TXB2 levels in the serum were measured using EIA kit (Cayman chemicals, USA) after deproteinization.

COX-1 = target: T2, COX-1 (Homo sapiens, UniProt P23219); test: Human whole blood assay, COX-1 inhibition; format: cell-based
T2 construct: Fresh heparinised human whole blood; endogenous in cells; host or cells: human whole blood
Method: as §3
Fresh heparinised human whole blood was incubated with lipopolysaccharide (LPS) from E. coli at 100 μg/ml and with 2.5 μl vehicle (D)MSO) or test compound for 24 hours at 37° C. PGE2 levels in the plasma were measured using EIA kit (Cayman chemicals, USA) after deproteinization.

cox-1 enzyme = target: T3, cox-1 enzyme (Ovis aries, UniProt P05979); test: Spectrophotometric assay of cox-1 (TMPD oxidation); format: biochemical; conditions: microsomal fraction of ram seminal vesicles, read-out: Percent inhibition COX-1; for inhibition at 100 µM: Conc. 100 μM
T3 construct: Microsomal fraction of ram seminal vesicles used as a source of cox-1 enzyme; from tissue; host or cells: ram seminal vesicles (microsomal fraction)
T3 sequence (P05979 25-600): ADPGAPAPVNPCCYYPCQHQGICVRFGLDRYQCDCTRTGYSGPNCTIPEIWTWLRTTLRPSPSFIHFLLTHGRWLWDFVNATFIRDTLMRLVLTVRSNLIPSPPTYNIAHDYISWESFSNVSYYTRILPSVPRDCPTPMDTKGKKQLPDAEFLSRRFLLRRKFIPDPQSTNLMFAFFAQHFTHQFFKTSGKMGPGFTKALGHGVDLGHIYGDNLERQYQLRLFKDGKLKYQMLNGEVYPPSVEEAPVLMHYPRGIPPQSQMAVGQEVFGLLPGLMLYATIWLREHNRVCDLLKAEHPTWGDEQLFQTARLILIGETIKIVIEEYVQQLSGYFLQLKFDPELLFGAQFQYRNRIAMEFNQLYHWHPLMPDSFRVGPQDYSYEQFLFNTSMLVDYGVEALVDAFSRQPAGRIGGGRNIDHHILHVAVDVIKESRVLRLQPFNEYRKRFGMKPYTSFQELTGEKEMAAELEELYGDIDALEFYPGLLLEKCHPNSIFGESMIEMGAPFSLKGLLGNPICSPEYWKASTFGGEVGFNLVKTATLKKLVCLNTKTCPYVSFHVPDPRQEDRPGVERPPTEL
Method: as §1, §2

T2 sequence (P23219 24-599): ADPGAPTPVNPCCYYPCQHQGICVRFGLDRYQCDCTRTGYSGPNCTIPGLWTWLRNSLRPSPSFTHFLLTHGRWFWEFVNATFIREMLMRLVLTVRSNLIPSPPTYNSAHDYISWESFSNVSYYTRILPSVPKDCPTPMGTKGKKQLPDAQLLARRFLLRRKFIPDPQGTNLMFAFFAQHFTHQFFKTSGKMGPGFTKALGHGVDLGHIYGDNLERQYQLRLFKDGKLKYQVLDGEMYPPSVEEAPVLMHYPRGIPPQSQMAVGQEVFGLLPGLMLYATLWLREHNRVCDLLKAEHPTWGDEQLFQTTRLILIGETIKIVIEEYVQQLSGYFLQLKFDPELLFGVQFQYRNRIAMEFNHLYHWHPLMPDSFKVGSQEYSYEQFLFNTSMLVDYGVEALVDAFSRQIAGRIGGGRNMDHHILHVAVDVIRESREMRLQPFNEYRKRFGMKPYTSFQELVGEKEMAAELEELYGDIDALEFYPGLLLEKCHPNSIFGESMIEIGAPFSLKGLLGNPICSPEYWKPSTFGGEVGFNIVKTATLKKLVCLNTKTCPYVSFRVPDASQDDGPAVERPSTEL

Structure (SMILES) | inhibition at 100 µM (COX-2 [1]) | IC50 (COX-2 [2]) | IC50 (COX-1) | melting point | inhibition at 100 µM (cox-1 enzyme) | inhibition at 10 µM (COX-2 [1]; Conc. 10 μM) | inhibition at 10 µM (cox-1 enzyme; Conc. 10 μM)
CS(=O)(=O)c1ccc(C2=C(c3ccc(F)cc3)C(=O)OC2)c(F)c1 [Example 1, 3-(4-Fluorophenyl)-4-(2-fluoro-4-methylsulfonylphenyl)-2,5-dihydro-2-furanone] | 100% | 2.72 ± 0.425 µM | 195 ± 27.5 µM | 160 to 162 °C | 33% | – | –
CCC1OC(=O)C(c2ccc(F)cc2)=C1c1ccc(S(C)(=O)=O)c(F)c1 (centres unmarked) [Example 68, 5-Ethyl-4-(3-fluoro-4-methylsulfonylphenyl)-3-(4-fluorophenyl)-2,5-dihydro-2-furanone] | 100% | 1.25 µM | 297 µM | 176 to 178 °C | 0% | – | –
CCC1OC(=O)C(c2ccc(SC)c(C)c2)=C1c1ccc(S(C)(=O)=O)c(F)c1 (centres unmarked) [Example 71, 5-Ethyl-4-(3-fluoro-4-methylsulfonylphenyl)-3-(3-methyl-4-methylsulfanylphenyl)-2,5-dihydro-2-furanone] | 99% | – | – | 148 to 150 °C | 3% | – | –
CS(=O)(=O)c1ccc(C2=C(c3cc(F)cc(F)c3)C(=O)OC2)c(F)c1 [Example 70, 3-(3,5-Difluorophenyl)-4-(2-fluoro-4-methylsulfonylphenyl)-2,5-dihydro-2-furanone] | 92% | 0.913 µM | 115 µM | 125 to 127 °C | 49% | – | –
Cc1cc(C2=C(c3ccccc3)C(=O)OC2)ccc1S(C)(=O)=O [Example 6, 4-(3-Methyl-4-methylsulfonylphenyl)-3-phenyl-2,5-dihydro-2-furanone] | 82% | 5.7 µM | > 500 µM | 167 to 170 °C | 0% | – | –
CC1OC(=O)C(c2ccc(F)cc2)=C1c1ccc(S(C)(=O)=O)c(F)c1 (centres unmarked) [Example 89, 4-(3-Fluoro-4-methylsulfonylphenyl)-3-(4-fluorophenyl)-5-methyl-2,5-dihydro-2-furanone] | – | 6.13 µM | > 1000 µM | 190 to 192 °C | – | 95% | 0%
COc1ccc(C2=C(c3ccc(S(C)(=O)=O)c(C)c3)COC2=O)cc1C [Example 55, 3-(3-Methyl-4-methoxyphenyl)-4-(3-methyl-4-methylsulfonylphenyl)-2,5-dihydro-2-furanone] | 100% | 1 µM | > 100 µM | 147 to 150 °C | 30% | – | –

More lines, now with the values ahead:

inhibition at 100 µM (COX-2 [1]) | IC50 (COX-2 [2]) | IC50 (COX-1) | melting point | inhibition at 100 µM (cox-1 enzyme) | inhibition at 10 µM (COX-2 [1]; Conc. 10 μM) | inhibition at 10 µM (cox-1 enzyme; Conc. 10 μM) | Structure (SMILES)
93% | 0.524 ± 0.062 µM | 357 ± 7.45 µM | 144 to 146 °C | 19% | – | – | COc1ccc(C2=C(c3ccc(S(C)(=O)=O)cc3F)COC2=O)cc1C [Example 58, 4-(2-Fluoro-4-methylsulfonylphenyl)-3-(3-methyl-4-methoxyphenyl)-2,5-dihydro-2-furanone]
100% | 0.368 µM | 247 ± 24 µM | 177 to 180 °C | 44% | – | – | CSc1ccc(C2=C(c3ccc(S(C)(=O)=O)c(F)c3)COC2=O)cc1C [Example 53, 4-(3-Fluoro-4-methylsulfonylphenyl)-3-(3-methyl-4-methylsulfanylphenyl)-2,5-dihydro-2-furanone]
100% | 0.578 ± 0.011 µM | 1220 ± 20 µM | 125 to 128 °C | 12% | – | – | CS(=O)(=O)c1ccc(C2=C(c3cccc(F)c3)C(=O)OC2)c(F)c1 [Example 52, 4-(2-Fluoro-4-methylsulfonylphenyl)-3-(3-fluorophenyl)-2,5-dihydro-2-furanone]
93% | 0.318 ± 0.013 µM | > 500 µM | 146 to 148 °C | 10% | – | – | CS(=O)(=O)c1ccc(C2=C(c3ccc(F)c(F)c3)C(=O)OC2)c(F)c1 [Example 69, 3-(3,4-Difluorophenyl)-4-(2-fluoro-4-methylsulfonylphenyl)-2,5-dihydro-2-furanone]
